What was measured:
clinical [1] = settings: human, in vivo, iv, 11.3 mg/kg
Description: Elimination rate constant in lymphoma patient at 11.3 mg/kg, iv by one compartment open model

[2] = Renal clearance in lymphoma patient (7 patients); settings: human, in vivo
clinical [3] = settings: human, plasma, iv, 11.3 mg/kg
[4] = First order rate constant for slow elimination phase in iv dosed lymphoma patient (6 patients) by two-compartmental open model; settings: human, in vivo
[5] = Apparent volume of distribution during terminal log-linear elimination phase in iv dosed lymphoma patient (6 patients) by two-compartmental open model; settings: human, in vivo
[6] = Elimination rate constant in po dosed lymphoma patient (7 patients) by one compartment open model; settings: human, in vivo
clinical [7] = settings: human, in vivo, iv, 11.3 mg/kg; remark: listed apart in the source
Description: Volume of distribution in lymphoma patient at 11.3 mg/kg, iv by one compartment open model

[8] = Drug excretion in po dosed lymphoma patient (7 patients) assessed as unchanged parent compound in urine; settings: human
[9] = Clearance in po dosed lymphoma patient (7 patients) by one compartment open model; settings: human, in vivo
[10] = Half life in po dosed lymphoma patient (7 patients) by one compartment open model; settings: human, in vivo
clinical [11] = settings: human, in vivo, iv, 11.3 mg/kg; remark: listed apart in the source
Description: Clearance in lymphoma patient at 11.3 mg/kg, iv by one compartment open model

[12] = Apparent volume of distribution of central compartment in iv dosed lymphoma patient (6 patients) by two-compartmental open model; settings: human, in vivo
[13] = Extraction ratio in lymphoma patient (7 patients); settings: human, in vivo
clinical [14] = settings: human, in vivo, iv, 11.3 mg/kg; remark: listed apart in the source
Description: Elimination half life in lymphoma patient at 11.3 mg/kg, iv by one compartment open model

[15] = Elimination rate constant from central compartment in iv dosed lymphoma patient (6 patients) by two-compartmental open model; settings: human, in vivo

O=P1(N(CCCl)CCCl)NCCCO1 (stereo not given) [CYCLOPHOSPHAMIDE ANHYDROUS]
k el (clinical [1]): 3e-05 s⁻¹ | CL renal [2]: 0.0048 L/h/kg | C0 (clinical [3]): 12.5 µg/mL | k el [4]: 2.53e-05 s⁻¹ | Vd [5]: 0.71 L/kg | k el [6]: 6.03e-05 s⁻¹ | Vd (clinical [7]): 0.9 L/kg | dose excreted [8]: 1.8% | CL/F [9]: 0.0931 L/h/kg | half-life [10]: 3.93 h | clearance (clinical [11]): 0.0973 L/h/kg | Vd [12]: 0.38 L/kg | hepatic extraction ratio [13]: 0.25 | half-life (clinical [14]): 6.42 h | k el [15]: 5.56e-05 s⁻¹

Source: ChEMBL document CHEMBL3785022, “Pharmacokinetics of cyclophosphamide and alkylating activity in man after intravenous and oral administration” (Br J Clin Pharmacol, 1979)
